Experimental data as given in ChEMBL document CHEMBL3616440, “Non-basic azolotriazinone MCHR1 antagonists for the treatment of obesity: An empirical brain-exposures-driven candidate selection for in vivo efficacy studies” (Bioorg Med Chem Lett, 2015).
Values belong to the compound of their own block, whether it stands above or below them.

Legend:
Brain [1] = test: Drug concentration in Sprague-Dawley rat brain assessed as 6-(4-chlorophenyl)-3-(4-(2-hydroxypropoxy)-3-methoxyphenyl)pyrrolo[1,2-f][1,2,4]triazin-4(3H)-one level at 3 mg/kg, po qd after 10 days; type: ADME, organism-based; settings: in vivo, 240 h, read-out: Drug uptake
Brain [2] = test: Drug concentration in Sprague-Dawley rat brain assessed as 6-(4-chlorophenyl)-3-(4-(2-hydroxypropoxy)-3-methoxyphenyl)pyrrolo[1,2-f][1,2,4]triazin-4(3H)-one level at 10 mg/kg, po qd after 10 days; type: ADME, organism-based; settings: in vivo, 240 h, read-out: Drug uptake
Brain [3] = test: Drug concentration in Sprague-Dawley rat brain assessed as 6-(4-chlorophenyl)-3-(4-(2-hydroxypropoxy)-3-methoxyphenyl)pyrrolo[1,2-f][1,2,4]triazin-4(3H)-one level at 30 mg/kg, po qd after 10 days; type: ADME, organism-based; settings: in vivo, 240 h, read-out: Drug uptake
Brain [4] = test: Free drug level in Sprague-Dawley rat brain assessed as 6-(4-chlorophenyl)-3-(4-(2-hydroxypropoxy)-3-methoxyphenyl)pyrrolo[1,2-f][1,2,4]triazin-4(3H)-one level at 30 mg/kg, po qd at 20 hrs; type: ADME, organism-based; settings: in vivo
Rattus norvegicus [5] = test: Antiobesity activity in Sprague-Dawley rat assessed as body weight reduction at 3 mg/kg, po qd after 4 days relative to control; type: functional; settings: 96 h
Rattus norvegicus [6] = test: Antiobesity activity in Sprague-Dawley rat assessed as body weight reduction at 10 mg/kg, po qd after 4 days relative to control; type: functional; settings: 96 h
Rattus norvegicus [7] = test: Antiobesity activity in Sprague-Dawley rat assessed as body weight reduction at 30 mg/kg, po qd after 4 days relative to control; type: functional; settings: 96 h
Liver [8] = test: Prodrug conversion in oral-dosed Sprague-Dawley rat liver assessed as 6-(4-chlorophenyl)-3-(4-(2,3-dihydroxypropoxy)-3-methoxyphenyl)pyrrolo[1,2-f][1,2,4]triazin-4(3H)-one formation; type: ADME, tissue-based; settings: in vivo
Liver [9] = test: Prodrug conversion in oral-dosed Sprague-Dawley rat liver assessed as 3-(4-(6-(4-chlorophenyl)-4-oxopyrrolo[1,2-f][1,2,4]triazin-3(4H)-yl)-2-methoxyphenoxy)-2-hydroxypropanoic acid formation; type: ADME, tissue-based; settings: in vivo
Rattus norvegicus [10] = test: Toxicity in Sprague-Dawley rat assessed as biliary lesion at 10 mg/kg, po qd for 10 days; type: organism-based; settings: in vivo, 240 h
[11] = Ratio of free drug level in brain of Sprague-Dawley rat assessed as 6-(4-chlorophenyl)-3-(4-(2-hydroxypropoxy)-3-methoxyphenyl)pyrrolo[1,2-f][1,2,4]triazin-4(3H)-one level at 30 mg/kg, po to Ki for rat MCHR1; type: ADME, organism-based; settings: in vivo
Plasma [12] = test: Fraction unbound in Sprague-Dawley rat plasma assessed as 6-(4-chlorophenyl)-3-(4-(2-hydroxypropoxy)-3-methoxyphenyl)pyrrolo[1,2-f][1,2,4]triazin-4(3H)-one level; type: ADME, cell-free
Rattus norvegicus [13] = test: Toxicity in oral-dosed Sprague-Dawley rat assessed as biliary lesion after 4 days; type: organism-based; settings: in vivo, 96 h
Brain [14] = test: Drug concentration in Sprague-Dawley rat brain assessed as 6-(4-chlorophenyl)-3-(4-(2-hydroxy-2-methylpropoxy)-3-methoxyphenyl)pyrrolo[1,2-f][1,2,4]triazin-4(3H)-one level at 30 mg/kg, po qd at 20 hrs; type: ADME, organism-based; settings: in vivo, read-out: Drug uptake
Brain [15] = test: Free drug level in Sprague-Dawley rat brain assessed as 6-(4-chlorophenyl)-3-(4-(2-hydroxy-2-methylpropoxy)-3-methoxyphenyl)pyrrolo[1,2-f][1,2,4]triazin-4(3H)-one level at 3 mg/kg, po qd at 20 hrs; type: ADME, organism-based; settings: in vivo
Brain [16] = test: Free drug level in Sprague-Dawley rat brain assessed as 6-(4-chlorophenyl)-3-(4-(2-hydroxy-2-methylpropoxy)-3-methoxyphenyl)pyrrolo[1,2-f][1,2,4]triazin-4(3H)-one level at 10 mg/kg, po qd at 20 hrs; type: ADME, organism-based; settings: in vivo
Brain [17] = test: Free drug level in Sprague-Dawley rat brain assessed as 6-(4-chlorophenyl)-3-(4-(2-hydroxy-2-methylpropoxy)-3-methoxyphenyl)pyrrolo[1,2-f][1,2,4]triazin-4(3H)-one level at 30 mg/kg, po qd at 20 hrs; type: ADME, organism-based; settings: in vivo
Liver [18] = test: Prodrug conversion in Sprague-Dawley rat liver assessed as 6-(4-chlorophenyl)-3-(4-(2,3-dihydroxy-2-methylpropoxy)-3-methoxyphenyl)pyrrolo[1,2-f][1,2,4]triazin-4(3H)-one formation at 10 mg/kg, po qd at 20 hrs post dose; type: ADME, organism-based; settings: in vivo
Liver [19] = test: Prodrug conversion in Sprague-Dawley rat liver assessed as 6-(4-chlorophenyl)-3-(4-(2,3-dihydroxypropoxy)-3-methoxyphenyl)pyrrolo[1,2-f][1,2,4]triazin-4(3H)-one formation at 10 mg/kg, po qd at 20 hrs post dose; type: ADME, organism-based; settings: in vivo
Liver [20] = test: Prodrug conversion in Sprague-Dawley rat liver assessed as 3-(4-(6-(4-chlorophenyl)-4-oxopyrrolo[1,2-f][1,2,4]triazin-3(4H)-yl)-2-methoxyphenoxy)-2-hydroxy-2-methylpropanoic acid formation at 10 mg/kg, po qd at 20 hrs post dose; type: ADME, organism-based; settings: in vivo
Liver [21] = test: Prodrug conversion in Sprague-Dawley rat liver assessed as 3-(4-(6-(4-chlorophenyl)-4-oxopyrrolo[1,2-f][1,2,4]triazin-3(4H)-yl)-2-methoxyphenoxy)-2-hydroxypropanoic acid formation at 10 mg/kg, po qd at 20 hrs post dose; type: ADME, organism-based; settings: in vivo
[22] = Ratio of free drug level in brain of Sprague-Dawley rat assessed as 6-(4-chlorophenyl)-3-(4-(2-hydroxy-2-methylpropoxy)-3-methoxyphenyl)pyrrolo[1,2-f][1,2,4]triazin-4(3H)-one level at 3 mg/kg, po to Ki for rat MCHR1; type: ADME, organism-based; settings: in vivo
[23] = Ratio of free drug level in brain of Sprague-Dawley rat assessed as 6-(4-chlorophenyl)-3-(4-(2-hydroxy-2-methylpropoxy)-3-methoxyphenyl)pyrrolo[1,2-f][1,2,4]triazin-4(3H)-one level at 10 mg/kg, po to Ki for rat MCHR1; type: ADME, organism-based; settings: in vivo
[24] = Ratio of free drug level in brain of Sprague-Dawley rat assessed as 6-(4-chlorophenyl)-3-(4-(2-hydroxy-2-methylpropoxy)-3-methoxyphenyl)pyrrolo[1,2-f][1,2,4]triazin-4(3H)-one level at 30 mg/kg, po to Ki for rat MCHR1; type: ADME, organism-based; settings: in vivo
[25] = Cmax in Sprague-Dawley rat at 10 mg/kg, po qd after 1.5 hrs; type: ADME, organism-based; parameters: dose 10 mg/kg, route oral; settings: in vivo
[26] = AUC (0 to 8 hrs ) in Sprague-Dawley rat at 10 mg/kg, po qd; type: ADME, organism-based; parameters: time < 8 hr, dose 10 mg/kg, route oral; settings: in vivo
Rattus norvegicus [27] = test: Cmax in Sprague-Dawley rat assessed as 6-(4-chlorophenyl)-3-(4-(2-hydroxy-2-methylpropoxy)-3-methoxyphenyl)pyrrolo[1,2-f][1,2,4]triazin-4(3H)-one level at 10 mg/kg, po qd at 4 hrs; type: ADME, organism-based; parameters: dose 10 mg/kg, route oral; settings: in vivo
Rattus norvegicus [28] = test: AUC (0 to 8 hrs ) in Sprague-Dawley rat assessed as 6-(4-chlorophenyl)-3-(4-(2-hydroxy-2-methylpropoxy)-3-methoxyphenyl)pyrrolo[1,2-f][1,2,4]triazin-4(3H)-one level at 10 mg/kg, po qd; type: ADME, organism-based; parameters: dose 10 mg/kg, time < 8 hr, route oral; settings: in vivo
Plasma [29] = test: Plasma concentration in Sprague-Dawley rat assessed as 6-(4-chlorophenyl)-3-(4-(2-hydroxy-2-methylpropoxy)-3-methoxyphenyl)pyrrolo[1,2-f][1,2,4]triazin-4(3H)-one level at 10 mg/kg, po qd at 8 hrs; type: ADME, organism-based; settings: in vivo
Brain [30] = test: Drug concentration in Sprague-Dawley rat brain assessed as 6-(4-chlorophenyl)-3-(4-(2-hydroxy-2-methylpropoxy)-3-methoxyphenyl)pyrrolo[1,2-f][1,2,4]triazin-4(3H)-one level at 10 mg/kg, po qd at 8 hrs; type: ADME, organism-based; settings: in vivo
Nucleic Acid = test: Ratio of drug level in Sprague-Dawley rat brain to plasma assessed as 6-(4-chlorophenyl)-3-(4-(2-hydroxy-2-methylpropoxy)-3-methoxyphenyl)pyrrolo[1,2-f][1,2,4]triazin-4(3H)-one level at 10 mg/kg, po qd; type: ADME, organism-based
Plasma [31] = test: Fraction unbound in Sprague-Dawley rat plasma assessed as 6-(4-chlorophenyl)-3-(4-(2-hydroxy-2-methylpropoxy)-3-methoxyphenyl)pyrrolo[1,2-f][1,2,4]triazin-4(3H)-one level; type: ADME, cell-free
Brain [32] = test: Drug concentration in Sprague-Dawley rat brain assessed as 6-(4-chlorophenyl)-3-(4-(2-hydroxy-2-methylpropoxy)-3-methoxyphenyl)pyrrolo[1,2-f][1,2,4]triazin-4(3H)-one level at 3 mg/kg, po qd at 20 hrs; type: ADME, organism-based; settings: in vivo, read-out: Drug uptake
Brain [33] = test: Drug concentration in Sprague-Dawley rat brain assessed as 6-(4-chlorophenyl)-3-(4-(2-hydroxy-2-methylpropoxy)-3-methoxyphenyl)pyrrolo[1,2-f][1,2,4]triazin-4(3H)-one level at 10 mg/kg, po qd at 20 hrs; type: ADME, organism-based; settings: in vivo, read-out: Drug uptake

concentration (Brain [1]): 4.12 µM
concentration (Brain [2]): 12.9 µM
concentration (Brain [3]): 20.8 µM
Drug uptake(free) (Brain [4]): 8.4 nM
Drug metabolism (Liver [8]): 6 µM
Drug metabolism (Liver [9]): 46 µM
Ratio [11]: 6
Fu (Plasma [12]): 0.4%
Structure (SMILES): COc1cc(-n2cnn3cc(-c4ccc(Cl)cc4)cc3c2=O)ccc1OCC(C)OC(=O)[C@@H](N)C(C)C (some centres not stated)
inhibition in vivo at 3 mg/kg (Rattus norvegicus [5]): 2.6%
inhibition in vivo at 10 mg/kg (Rattus norvegicus [6]): 3.9%
inhibition in vivo at 30 mg/kg (Rattus norvegicus [7]): 7.6%
Activity (Rattus norvegicus [10]): Toxic

Structure (SMILES): COc1cc(-n2cnc3cc(-c4ccc(Cl)cc4)sc3c2=O)ccc1OCC(C)O (configuration not stated)
Activity (Rattus norvegicus [13]): Toxic

concentration (Brain [14]): 11.7 µM
Drug uptake(free) (Brain [15]): 6.3 nM
Drug uptake(free) (Brain [16]): 16 nM
Drug uptake(free) (Brain [17]): 47 nM
Drug metabolism (Liver [18]): 10 µM
Drug metabolism (Liver [19]): 10 µM
Drug metabolism (Liver [20]): 2.4 µM
Drug metabolism (Liver [21]): 2.4 µM
Ratio [22]: 3.5
Ratio [23]: 8.9
Ratio [24]: 26
Cmax [25]: 0.005 µM
AUC at 8 h [26]: 0.015 µM·h
Cmax (Rattus norvegicus [27]): 1.57 µM
AUC (Rattus norvegicus [28]): 8.2 µM·h
concentration (Plasma [29]): 0.903 µM
Drug uptake (Brain [30]): 4.551 µM
BPR (Nucleic Acid): 5
Fu (Plasma [31]): 0.4%
concentration (Brain [32]): 1.57 µM
concentration (Brain [33]): 4.04 µM
Structure (SMILES): COc1cc(-n2cnn3cc(-c4ccc(Cl)cc4)cc3c2=O)ccc1OCC(C)(C)OC(=O)CN
inhibition in vivo at 3 mg/kg (Rattus norvegicus [5]): 3.6%
inhibition in vivo at 10 mg/kg (Rattus norvegicus [6]): 4.7%
inhibition in vivo at 30 mg/kg (Rattus norvegicus [7]): 6.9%
